Tests used:
[1] = system: 413 dystrophic skeletal explants; experiment: Effect on dystrophic skeletal explants in cell culture (microtubules); type: cell-based, chicken; conditions: upon incubation in IAPP, 0.5 mg/ml; skeletal and cardiac explants
Method: In these experiments 2-week and 3-week normal and dystrophic chickens (that had no previous injections with IAPP) were sacrificed and skeletal and cardiac explants were placed in culture with 0.5 mg/ml IAPP added. The pooled results of these experiments are as follows: […]

[2] = system: plasma CPK (creatine phosphokinase); experiment: Plasma CPK; type: in vivo, chicken
Method: (§1) Chemotherapy was assessed by application of seven different parameters: physical tests of muscular disability, namely the flip test and wing apposition (W.A.) measurements; biochemical assays of serum and muscle enzume levels of creatine phosphokinase (CPK), pyruvate kinase (PK) and acetylcholinesterase (AChE); and histological comparisons of treated and untreated muscle. Toxicity studies (weight loss, etc.) were also used. A very comprehensive profile of the drug was thus obtained which related to all the known, highly characteristic features of the disease which are applicable to both the animal model and the human.
Plasma CPK rises dramatically in the dystrophic chicken as it does also in the human disease. The normal chicken has 200-300 U/l CPK, compared to about 20,000 U/l in the untreated dystrophic chicken at its peak. It rises to these high levels over a period of two months and is, therefore, a significant index of the disease. […]
Finally, oral therapy with IAPP was undertaken at gradually increasing dosages up to 1 g/Kg/day. The parameters (physical, biochemical and histological) measured previously were again used to test the efficacy of the drug; five different dosages were used orally, each being given for 30-60 days, daily (Tables VII-XI). A total of 75 animals were treated in the current study with IAPP and 70 control animals were used.

[3] = system: dystrophic New Hampshire chickens, line 413; experiment: Overall assessment of chemotherapy over all parameters measured; type: in vivo, chicken
Method: The compound IAPP was tested on dystrophic New Hampshire chickens, line 413, and Imperial College (London, England) sub-line of the original Davis, University of California strain. The chickens are homozygous for muscular dystrophy, the disease appearing with 100% incidence.
as §1, with “human. […]” for “human.”

[4] = system: dystrophic 413 muscle explants; experiment: Microtubule complexes in muscle explants of injected dystrophic chickens; type: in vivo, chicken
From the text: Essentially, these experiments were divided into three subgroups, taken from the previous Table:
413A, 413B, 412A, 412B: All were sacrificed after 4 injections and muscle explants placed in culture.
413C, 412C: All were sacrificed after 8 injections and muscle explants were placed in culture.
413D, 412D: All were sacrificed after 10 injections and muscle explants placed in culture.
All explants were placed in CMRL culture medium containing 5% horse serum, 15% fetal bovine serum and 1% antibiotics and allowed to grow for 5-7 days before being fixed and observed for the presence or absence of microtubules. No IAPP was added to the culture medium during the 5-7 days in culture.

[5] = 200 mg/Kg i.p. daily for 30 days, day 28 ex ovo
[6] = 200 mg/Kg i.p. daily for 30 days, day 45 ex ovo
[7] = 200 mg/Kg i.p. daily for 30 days, day 56 ex ovo
[8] = 200 mg/Kg i.p. daily for 30 days, day 84 ex ovo
[9] = 300 mg/Kg i.p. daily for 30 days, day 28 ex ovo
[10] = 300 mg/Kg i.p. daily for 30 days, day 45 ex ovo
[11] = 300 mg/Kg i.p. daily for 30 days, day 56 ex ovo
[12] = 300 mg/Kg i.p. daily for 30 days, day 84 ex ovo
[13] = 300 mg/Kg i.p. three times weekly for 30 days, day 28 ex ovo
[14] = 300 mg/Kg i.p. three times weekly for 30 days, day 45 ex ovo
[15] = 300 mg/Kg i.p. three times weekly for 30 days, day 84 ex ovo
[16] = Table VII, oral 200 mg/Kg, 60 days, day 28 ex ovo
[17] = Table VII, oral 200 mg/Kg, 60 days, day 35 ex ovo
[18] = Table VII, oral 200 mg/Kg, 60 days, day 45 ex ovo
[19] = Table VII, oral 200 mg/Kg, 60 days, day 60 ex ovo
[20] = oral 300 mg/Kg daily, day 28 ex ovo
[21] = oral 300 mg/Kg daily, day 35 ex ovo
[22] = oral 450 mg/Kg daily for 45 days, day 28 ex ovo
[23] = oral 450 mg/Kg daily for 45 days, day 35 ex ovo
[24] = oral 450 mg/Kg daily for 45 days, day 50 ex ovo
[25] = oral 600 mg/Kg daily, day 28 ex ovo
[26] = oral 600 mg/Kg daily, day 35 ex ovo
[27] = oral 600 mg/Kg daily, day 50 ex ovo
[28] = oral 1 g/Kg daily, day 28 ex ovo
[29] = oral 1 g/Kg daily, day 35 ex ovo
[30] = 200 mg/Kg i.p. daily for 28 days
[31] = oral 1 g/Kg daily, first four weeks

CC(C)Nc1ncccn1.O=P(O)(O)O [IAPP, 2-isopropylaminopyrimidine orthophosphate]
Staining of microtubules in dystrophic cells in culture [1]: appears to normalize upon incubation in IAPP | CPK [2, 5]: 478 mU/ml | CPK, % change from control [2, 5]: -61% | CPK [2, 6]: 4810 mU/ml | CPK, % change from control [2, 6]: -40% | CPK [2, 7]: 5412 mU/ml | CPK, % change from control [2, 7]: -48% | CPK [2, 8]: 13,540 mU/ml | CPK, % change from control [2, 8]: -36% | CPK [2, 9]: 651 mU/ml | CPK, % change from control [2, 9]: -46% | CPK [2, 10]: 4505 mU/ml | CPK, % change from control [2, 10]: -44% | CPK [2, 11]: 7629 mU/ml | CPK, % change from control [2, 11]: -27% | CPK [2, 12]: 24,248 mU/ml | CPK, % change from control [2, 12]: +15% | CPK [2, 13]: 651 mU/ml | CPK, % change from control [2, 13]: -46% | CPK [2, 14]: 6076 mU/ml | CPK, % change from control [2, 14]: -24% | CPK ([2]; 300 mg/Kg i.p. three times weekly for 30 days, day 56 ex ovo): 7944 mU/ml | CPK [2, 15]: 16,602 mU/ml | CPK, % change from control [2, 15]: -21% | % CPK Change vs untreated dystrophic controls ([2]; Exp. 2, 40 mg/Kg i.p. daily, day 7-13): -8% | % CPK Change vs untreated dystrophic controls ([2]; Exp. 2, 40 mg/Kg i.p. daily, day 14-20): -46% | % CPK Change vs untreated dystrophic controls ([2]; Exp. 2, 40 mg/Kg i.p. daily, day 21-27): -21% | % CPK Change vs untreated dystrophic controls ([2]; Exp. 2, 40 mg/Kg i.p. daily, day 28-34): -59% | % CPK Change vs untreated dystrophic controls ([2]; Exp. 2, 40 mg/Kg i.p. daily, day 35-41): -57% | % CPK Change vs untreated dystrophic controls ([2]; Exp. 2, 40 mg/Kg i.p. daily, day 42-48): -72% | % CPK Change vs untreated dystrophic controls ([2]; Exp. 2, 40 mg/Kg i.p. daily, day 56-62): -47% | % CPK Change vs untreated dystrophic controls ([2]; Exp. 2, 40 mg/Kg i.p. daily, day 63-71): -32% | % CPK Change vs untreated dystrophic controls ([2]; Exp. 3, 70 mg/Kg i.p. daily, day 21-27): -51% | % CPK Change vs untreated dystrophic controls ([2]; Exp. 3, 70 mg/Kg i.p. daily, day 28-34): -53% | CPK [2, 16]: 3496 mU/ml | CPK, % change from control [2, 16]: -31% | CPK [2, 17]: 7336 mU/ml | CPK, % change from control [2, 17]: -1% | CPK [2, 18]: 9638 mU/ml | CPK, % change from control [2, 18]: -18% | CPK [2, 19]: 10,860 mU/ml | CPK, % change from control [2, 19]: -24% | Reduction in plasma CPK levels ([2]; oral 200 mg/Kg, 60 days): moderate reduction | CPK [2, 20]: 3794 mU/ml | CPK, % change from control [2, 20]: -23% | CPK [2, 21]: 6690 mU/ml | CPK, % change from control [2, 21]: -30% | CPK [2, 22]: 4713 mU/ml | CPK, % change from control [2, 22]: -18% | CPK [2, 23]: 6483 mU/ml | CPK, % change from control [2, 23]: -24% | CPK [2, 24]: 17,975 mU/ml | CPK, % change from control [2, 24]: +30% | CPK [2, 25]: 2658 mU/ml | CPK, % change from control [2, 25]: -53% | CPK [2, 26]: 4712 mU/ml | CPK, % change from control [2, 26]: -45% | CPK [2, 27]: 9084 mU/ml | CPK, % change from control [2, 27]: -34% | CPK [2, 28]: 2217 mU/ml | CPK, % change from control [2, 28]: -63% | CPK [2, 29]: 4018 mU/ml | CPK, % change from control [2, 29]: -68% | Physical performance [3, 30]: not significantly improved | Reduction in plasma enzyme levels [3, 30]: large reduction in plasma enzume levels | Persistence of enzyme reduction after injections ceased ([3]; 200 mg/Kg i.p., CPK, PK, AChE reduced from control values): 56 days | Plasma enzyme activities ([3]; 300 mg/Kg i.p. daily): greatly reduced | Persistence of reduced plasma enzyme levels after treatment ceased ([3]; 300 mg/Kg i.p. three times weekly): 56 days | Reductions in plasma enzyme levels vs daily therapy ([3]; 300 mg/Kg three times weekly): very comparable reductions in plasma enzyme levels | Difference between treated and dystrophic control animals, parameters measured ([3]; Exp. 1, 30 mg/Kg i.p. daily): no significant differents | Flip number and wing apposition ([3]; Exp. 2, 40 mg/Kg): significant improvement | Effect on all parameters measured ([3]; Exp. 2, 40 mg/Kg i.p. daily): significant effect of IAPP on all parameters measured | CPK, PK and AChE enzyme levels ([3]; Exp. 2, 40 mg/Kg, effect declining at end of 10-week experiment): reduced dramatically | minimal effective dose ([3]; Gallus gallus, ip, read-out: Minimum concentration found effective): 40 mg/kg | Effect on physical performance parameters ([3]; oral 200 mg/Kg, 60 days): no effect | Enzyme levels and physical performance ([3]; oral 600 mg/Kg): significant reductions in enzyme levels and improvements in physical performance | Physical performance parameters [3, 31]: greatly improved | Reduction in enzyme levels [3, 31]: highly significant reduction in enzyme levels | Effective oral dosage ([3]; oral, daily for 35 days, chicken): 1 g/kg | % Full Complexes Microtubules ([4]; 413B, Subgroup A, after 4 injections of 50 mg/Kg, 413A control 31%): 58% | % Full Complexes Microtubules ([4]; 413C, Subgroup B, after 8 injections of 50 mg/Kg): 60% | % Full Complexes Microtubules ([4]; 413D, Subgroup C, after 10 injections of 50 mg/Kg): 74%

Source: patent US4416885A, “Use of isopropylaminopyrimidine in the chemotherapy of muscular dystrophy, myopathy and myotonia” (priority 1982, dated 1983)
